# Reference: US20160022668A1, “APPLICATION OF CINCHONA ALKALOID DERIVATIVES AS CYTOTOXIC COMPOUNDS” (ADAM MICKIEWICZ UNIVERSITY, priority 2014, published 2016)
# Where “and” joins values, the source holds several entries; their conditions need not be identical. Equal entries are not always repeated. Where two headings read alike, the source gives them in different places.
# Columns and labels:
# [1] = test system: KB (nasopharynx cancer); assay: Sulphorhodamine B cytotoxicity test, KB line; assay type: cell-based; details: for Cytotoxic activity, IC50, KB (nasopharynx cancer) / IC50: 72 hours incubation, sulphorhodamine B
# Protocol: Cytotoxic activity tests were performed using the following cancer cell lines: MCF-7 (breast cancer), HeLa (cervical cancer) A549 (pulmonary cancer) and KB (nasopharynx cancer) obtained from ECACC (European Collection of Cell Cultures).
# Cytotoxicity tests were carried out using a standard procedure with sulphorhodamine B. They involved incubation of the cancer cell lines in the logarithmic growth phase for 72 hours with the compound tested and, subsequently, spectrophotometric determination of the degree of cell growth inhibition using adsorption of a dye (sulphorhodamine B) which binds cellular proteins. The determination was carried out according to a procedure reported in: Vichai, V., Kirtikara, K. Nature Protocols, 2006, 1, 1112.
# Preparation of Cells for the Experiment:
# Cancerous cells of the cell line tested in the logarithmic growth phase were seeded onto 24-well plates in a quantity of 20,000 cells/2 mL of the growth medium per well and, subsequently, incubated in an incubator at 37° C., in the 5% CO2 atmosphere for 24 hours.
# Preparation of Test Compound Solutions:
# Solutions of the test compounds were prepared in DMSO in the following concentration range: 0.05; 0.1; 0.5; 1; 5; 10; 50; 100 μM.
# The cells of the lines tested were treated with the solutions of the test compounds in a laminar-flow chamber which ensured sterile working conditions according to the following procedure: the first three wells were used as a control: they contained 20 μL of DMSO only; successive solutions of the test compound were added to subsequent wells (20 μL), starting with the lowest concentration (three wells for each concentration level). Subsequently, the plates were placed in an incubator for 72 hours.
# After the end of incubation, the adhered cells were fixed by adding 500 μL of cold (4° C.) 50% trichloroacetic acid (TCA) and incubated at 4° C. for 1 hour. Subsequently, each well was rinsed with sterile water and dried. The operation was repeated five times. The fixed cells were stained for 30 minutes by adding 500 μL of 0.4% of a dye solution (sulphorhodamine B) dissolved in 1% acetic acid. Any unbound dye was removed by decanting it from the plate, and the cells were washed 4 times with 1% acetic acid. Subsequently, the plates were dried in air for approx. 5 minutes. Any […] dye was dissolved by adding 1500 μL of […] Tris-base buffer (trishydroxymethylaminomethane) to each well and shaken using an orbital shaker for 5 minutes. Subsequently, 200 μL of solution from each well was transferred to each of two wells on a new 96-well plate and absorption of the solutions was determined spectrophotometrically at a wavelength of 490-530 nm using a plate reader.
# Depending on the type of the cell line, the following growth media were used: • the MCF-7 line was grown in Dulbecco's Modified Eagle's Medium (DME) from Sigma (cat. no. D5796), • the HeLa, A549 and KB lines were grown in RPMI-1640 Medium from Sigma (cat. no. R8758).
# IC50 values, denoting concentration of a compound needed to obtain 50% inhibition of cell growth, were determined for all the derivatives tested.
# [2] = test system: HeLa (cervical cancer); assay: Sulphorhodamine B cytotoxicity test, HeLa line; assay type: cell-based; details: for Cytotoxic activity class, HeLa (cervical cancer) / Cytotoxic activity, IC50, HeLa (cervical cancer) / IC50: 72 hours incubation, sulphorhodamine B
# Protocol: (§1) Cytotoxic activity tests were performed using the following cancer cell lines: MCF-7 (breast cancer), HeLa (cervical cancer) A549 (pulmonary cancer) and KB (nasopharynx cancer) obtained from ECACC (European Collection of Cell Cultures). Cytotoxicity tests were carried out using a standard procedure with sulphorhodamine B. They involved incubation of the cancer cell lines in the logarithmic growth phase for 72 hours with the compound tested and, subsequently, spectrophotometric determination of the degree of cell growth inhibition using adsorption of a dye (sulphorhodamine B) which binds cellular proteins. The determination was carried out according to a procedure reported in: Vichai, V., Kirtikara, K. […] Solutions of the test compounds were prepared in DMSO in the following concentration range: 0.05; 0.1; 0.5; 1; 5; 10; 50; 100 μM. The cells of the lines tested were treated with the solutions of the test compounds in a laminar-flow chamber which ensured sterile working conditions according to the following procedure: the first three wells were used as a control: they contained 20 μL of DMSO only; successive solutions of the test compound were added to subsequent wells (20 μL), starting with the lowest concentration (three wells for each concentration level). Subsequently, the plates were placed in an incubator for 72 hours. After the end of incubation, the adhered cells were fixed by adding 500 μL of cold (4° C.) 50% trichloroacetic acid (TCA) and incubated at 4° C. for 1 hour. Subsequently, each well was rinsed with sterile water and dried. The operation was repeated five times. The fixed cells were stained for 30 minutes by adding 500 μL of 0.4% of a dye solution (sulphorhodamine B) dissolved in 1% acetic acid. […] Subsequently, the plates were dried in air for approx. 5 minutes. Any […] dye was dissolved by adding 1500 μL of […] Tris-base buffer (trishydroxymethylaminomethane) to each well and shaken using an orbital shaker for 5 minutes. […] Depending on the type of the cell line, the following growth media were used: • the MCF-7 line was grown in Dulbecco's Modified Eagle's Medium (DME) from Sigma (cat. no. […] R8758). […] Program Procedure. Instruction and technical documentation change notice, instruction 14. Screening data summary interpretation and outline of current screening. Edition NCI NIH, Bethesda Rev., 1980, 6, 31-62).
# [3] = test system: A549 (lung cancer); assay: Sulphorhodamine B cytotoxicity test, A549 line; assay type: cell-based; details: for Cytotoxic activity class, A549 (lung cancer) / Cytotoxic activity, IC50, A549 (lung cancer) / IC50: 72 hours incubation, sulphorhodamine B
# Protocol: as §1
# [4] = test system: MCF-7 line (breast cancer); assay: Sulphorhodamine B cytotoxicity test, MCF-7 line; assay type: cell-based; details: for Cytotoxic activity class, MCF-7 line (breast cancer) / Cytotoxic activity, IC50, MCF-7 line (breast cancer) / IC50: 72 hours incubation, sulphorhodamine B
# Protocol: as §1
# [5] = test system: breast cancer cells (MCF-7); details: in vitro; Martirosyan et al. 2004; read-out: IC50, inhibition of growth and differentiation of breast cancer cells (MCF-7); cited from earlier work
# [6] = average of three determinations
# [7] = average of three determinations, read-out: Cytotoxic activity, IC50, KB (nasopharynx cancer)
# [8] = read-out: Cytotoxic activity class, KB (nasopharynx cancer)
# [9] = average of three determinations, read-out: Cytotoxic activity, IC50, HeLa (cervical cancer)
# [10] = average of three determinations, read-out: Cytotoxic activity, IC50, A549 (lung cancer)
# [11] = average of three determinations, read-out: Cytotoxic activity, IC50, MCF-7 line (breast cancer)
# [12] = Homo sapiens, HeLa, average of three determinations, read-out: Cytotoxic activity, IC50, HeLa (cervical cancer)
# [13] = Homo sapiens, HeLa, read-out: Cytotoxic activity class, HeLa (cervical cancer)
# [14] = Homo sapiens, A549, average of three determinations, read-out: Cytotoxic activity, IC50, A549 (lung cancer)
# [15] = Homo sapiens, A549, read-out: Cytotoxic activity class, A549 (lung cancer)
# [16] = Homo sapiens, MCF7, average of three determinations, read-out: Cytotoxic activity, IC50, MCF-7 line (breast cancer)
# [17] = Homo sapiens, MCF7, read-out: Cytotoxic activity class, MCF-7 line (breast cancer)
Molecule,"Cytotoxic activity, IC50, KB (nasopharynx cancer) [1, 6] [µg/mL]","IC50 [1, 7]","IC50 [1, 8] [µg/mL]","Cytotoxic activity class, HeLa (cervical cancer) [2]","Cytotoxic activity, IC50, HeLa (cervical cancer) [2, 6] [µg/mL]","IC50 [2, 9] [µM]","Cytotoxic activity class, A549 (lung cancer) [3]","Cytotoxic activity, IC50, A549 (lung cancer) [3, 6] [µg/mL]","IC50 [3, 10] [µM]","Cytotoxic activity class, MCF-7 line (breast cancer) [4]","Cytotoxic activity, IC50, MCF-7 line (breast cancer) [4, 6] [µg/mL]","IC50 [4, 11] [µM]","IC50 [2, 12]","IC50 [2, 13] [µg/mL]","IC50 [3, 14]","IC50 [3, 15] [µg/mL]","IC50 [4, 16]","IC50 [4, 17] [µg/mL]",further results
9-O-propargylcinchonidine [PCD],9.5,28.6 µM,4 to 30,(MA) (IC50 range of 4-30 μg/mL are considered medium active (abbreviated as MA)),10.0,30.1,(MA) (IC50 range of 4-30 μg/mL are considered medium active (abbreviated as MA)),16.0,48.1,(MA) (IC50 range of 4-30 μg/mL are considered medium active (abbreviated as MA)),9.3,28,–,–,–,–,–,–,"reduction in cytotoxic activity on change to the opposite configuration (8S,9R) ([4]; PCD versus PCN, general statement, not tied to one cell line): about 3 fold"
"O=c1[nH]c(=O)n([C@H]2C[C@H](O)[C@@H](CO)O2)cc1F [5-fluoro-2′-deoxyuridine, reference compound]",–,13.7 µg/mL and 55.6 µM,4 to 30,–,–,–,–,–,–,–,–,–,13 µg/mL and 52.8 µM,4 to 30,13.4 µg/mL and 54.4 µM,4 to 30,11.4 µg/mL and 46.3 µM,4 to 30,–
"O=c1[nH]cc(F)c(=O)[nH]1 [5-fluorouracil, reference compound]",–,22 µg/mL and 169 µM,4 to 30,–,–,–,–,–,–,–,–,–,21 µg/mL and 161 µM,4 to 30,21.4 µg/mL and 165 µM,4 to 30,18.2 µg/mL and 140 µM,4 to 30,–
"C#CCO[C@@H](c1ccnc2ccccc12)[C@H]1C[C@@H]2CCN1C[C@@H]2C=C [PCN, 9-O-propargylcinchonine]",3.2,9.63 µM,< 4,(A) (IC50<4 μg/mL are generally assumed as active (abbreviated as A)),3.5,10.5,(A) (IC50<4 μg/mL are generally assumed as active (abbreviated as A)),3.9,11.7,(A) (IC50<4 μg/mL are generally assumed as active (abbreviated as A)),3.0,9.02,–,–,–,–,–,–,"times as high activity compared to 5FU ([1]; KB line, ratio of IC50 to 5FU): 6.8 times; times as high activity compared to 5FdU ([1]; KB line, ratio of IC50 to 5FdU): 4.3 times; times as cytotoxic as 5FU ([2]; HeLa line, ratio of IC50 to 5FU): six times; times as cytotoxic as 5FdU ([2]; HeLa line, ratio of IC50 to 5FdU): 3.7 times; times as cytotoxic as 5FU ([3]; A549 line, ratio of IC50 to 5FU): more than five times; times as cytotoxic as 5FdU ([3]; A549 line, ratio of IC50 to 5FdU): more than three times; times as cytotoxic as 5FU ([4]; MCF-7 line, ratio of IC50 to 5FU): more than six times; times as active as 5FdU ([4]; MCF-7 line, ratio of IC50 to 5FdU): 3.8 times"
"C=C[C@H]1C[N@@]2CC[C@H]1C[C@@H]2[C@@H](O)c1ccnc2ccccc12 [cinchonine, reference compound]",–,> 50 µg/mL,–,–,–,–,–,–,–,–,–,–,> 50 µg/mL,–,> 50 µg/mL,–,> 50 µg/mL,–,–
C=C[C@H]1C[N@@]2CC[C@H]1C[C@H]2[C@H](O)c1ccnc2ccc(OC)cc12 [quinine],–,–,–,–,–,–,–,–,–,–,–,–,–,–,–,–,–,–,IC50 [5]: 40 µM
